According to patent publication US6130239A, “4-Alkenyl- and 4-alkynyloxindoles” (Hoffmann-La Roche Inc., priority 1999, dated 2000):
Counter-ions that a name gives are not always drawn.

Target: T1, Cyclin E/CDK2 (Homo sapiens, UniProt P24941)
T1 construct: made in house; host or cells: insect cells
Assay: CDK2 FlashPlate Assay (inhibition of Rb phosphorylation by Cyclin E/CDK2)
Assay type: biochemical
Conditions: for IC50: Table IA, recombinant human Cyclin E/CDK2, Rb substrate, 25 minutes room temperature; for inhibition at 1 µM: Table IB, concentration ≤1.0 μM

IC50	inhibition at 1 µM	Structure (SMILES)
< 4 µM	–	CCC(C)(O)C#Cc1cccc2c1/C(=C/c1[nH]ccc1OC)C(=O)N2 (racemic) [D, rac-(Z)-1,3-Dihydro-4-(3-hydroxy-3-methyl-1-pentynyl)-3-[(3-methoxy-1H-pyrrol-2-yl)methylene]-2H-indol-2-one]
< 4 µM	–	CCCC(C)(O)C#Cc1cccc2c1/C(=C/c1[nH]ccc1OC)C(=O)N2 (racemic) [N, rac-(Z)-1,3-Dihydro-4-(3-hydroxy-3-methyl-1-hexynyl)-3-[(3-methoxy-1H-pyrrol-2-yl)methylene]-2H-indol-2-one]
< 4 µM	–	COc1cc[nH]c1/C=C1\C(=O)Nc2cccc(C#CC(C)(O)CC(C)C)c21 (racemic) [O, rac-(Z)-1,3-Dihydro-4-(3,5-dimethyl-3-hydroxy-1-hexynyl)-3-[(3-methoxy-1H-pyrrol-2-yl)methylene]-2H-indol-2-one]
< 4 µM	–	CCCCCC(O)C#Cc1cccc2c1/C(=C/c1[nH]ccc1OC)C(=O)N2 (racemic) [Q, rac-(Z)-1,3-Dihydro-4-(3-hydroxy-1-octynyl)-3-[(3-methoxy-1H-pyrrol-2-yl)methylene]-2H-indol-2-one]
< 4 µM	–	CCC(O)C#Cc1cccc2c1/C(=C/c1[nH]ccc1OC)C(=O)N2 (racemic) [R, rac-(Z)-1,3-Dihydro-4-(3-hydroxy-1-pentynyl)-3-[(3-methoxy-1H-pyrrol-2-yl)methylene]-2H-indol-2-one]
< 4 µM	–	COc1cc[nH]c1/C=C1\C(=O)Nc2cccc(C#CCCCCO)c21 [A, (Z)-1,3-Dihydro-4-(6-hydroxy-1-hexynyl)-3-[(3-methoxy-1H-pyrrol-2-yl)methylene]-2H-indol-2-one]
< 4 µM	–	COc1cc[nH]c1/C=C1\C(=O)Nc2cccc(C#CC3(O)CCCC3)c21 [AA, (Z)-1,3-Dihydro-4-[(1-hydroxycyclopentyl)ethynyl]-3-[(3-methoxy-1H-pyrrol-2-yl)methylene]-2H-indol-2-one]
< 4 µM	–	COc1cc[nH]c1/C=C1\C(=O)Nc2cccc(C#CCCO)c21 [C, (Z)-1,3-Dihydro-4-(4-hydroxy-1-butynyl)-3-[(3-methoxy-1H-pyrrol-2-yl)methylene]-2H-indol-2-one]
< 4 µM	–	COc1cc[nH]c1/C=C1\C(=O)Nc2cccc(C#CCCCO)c21 [Compound B, (Z)-1,3-Dihydro-4-(5-hydroxy-1-pentynyl)-3-[(3-methoxy-1H-pyrrol-2-yl)methylene]-2H-indol-2-one]
< 4 µM	–	COc1cc[nH]c1/C=C1\C(=O)Nc2ccc(N)c(C#CCO)c21 [Compound BB, (Z)-5-Amino-1,3-dihydro-4-(3-hydroxy-1-propynyl)-3-[(3-methoxy-1H-pyrrol-2-yl)methylene]-2H-indol-2-one]
< 4 µM	–	COc1cc[nH]c1/C=C1\C(=O)Nc2ccc(NC(=O)c3ccncc3)c(C#CCO)c21 [DD, (Z)-N-[2,3-Dihydro-4-(3-hydroxy-1-propynyl)-3-[(3-methoxy-1H-pyrrol-2-yl)methylene]-2-oxo-1H-indol-5-yl]-4-pyridinecarboxamide]
< 4 µM	–	COC(=O)CCCC#Cc1cccc2c1/C(=C/c1[nH]ccc1OC)C(=O)N2 [E, (Z)-6-[2,3-Dihydro-3-[(3-methoxy-1H-pyrrol-2-yl)methylene]-2-oxo-1H-indol-4-yl]-5-hexynoic acid methyl ester]
–	> 60%	COC(=O)CCC#Cc1c([N+](=O)[O-])ccc2c1/C(=C/c1[nH]ccc1OC)C(=O)N2 [EE, (Z)-5-[2,3-Dihydro-3-[(3-methoxy-1H-pyrrol-2-yl)methylene]-5-nitro-2-oxo-1H-indol-4-yl]-4-pentynoic acid methyl ester]
< 4 µM	–	C#CCOCCO [Example 21, 3-(2-Hydroxyethoxy)-1-propyne]
< 4 µM	–	COC(=O)CCC#Cc1cccc2c1/C(=C/c1[nH]ccc1OC)C(=O)N2 [F, (Z)-5-[2,3-Dihydro-3-[(3-methoxy-1H-pyrrol-2-yl)methylene]-2-oxo-1H-indol-4-yl]-4-pentynoic acid methyl ester]
< 4 µM	–	COC(=O)CCC#Cc1c(N)ccc2c1/C(=C/c1[nH]ccc1OC)C(=O)N2 [FF, (Z)-5-[5-Amino-2,3-dihydro-3-[(3-methoxy-1H-pyrrol-2-yl)methylene]-2-oxo-1H-indol-4-yl]-4-pentynoic acid methyl ester]
< 4 µM	–	COc1cc[nH]c1/C=C1\C(=O)Nc2cccc(C#CCCCC(=O)O)c21 [G, (Z)-6-[2,3-Dihydro-3-[(3-methoxy-1H-pyrrol-2-yl)methylene]-2-oxo-1H-indol-4-yl]-5-hexynoic acid]
< 4 µM	–	COc1cc[nH]c1/C=C1\C(=O)Nc2cccc(C#CCCC(=O)O)c21 [H, (Z)-5-[2,3-Dihydro-3-[(3-methoxy-1H-pyrrol-2-yl)methylene]-2-oxo-1H-indol-4-yl]-4-pentynoic acid]

IC50	inhibition at 1 µM	Structure (SMILES)
< 4 µM	–	COc1cc[nH]c1/C=C1\C(=O)Nc2ccc(NC(=O)Cc3cccs3)c(C#CCCC(=O)O)c21 [HH, (Z)-5-[2,3-Dihydro-3-[(3-methoxy-1H-pyrrol-2-yl)methylene]-2-oxo-5-[(2-thienylacetyl)amino]-1H-indol-4-yl]-4-pentynoic acid]
< 4 µM	–	COc1cc[nH]c1/C=C1\C(=O)Nc2cccc(C#CCN)c21 [II, (Z)-4-(3-Amino-1-propynyl)-1,3-dihydro-3-[(3-methoxy-1H-pyrrol-2-yl)methylene]-2H-indol-2-one trifluoroacetate salt]
< 4 µM	–	COc1cc[nH]c1/C=C1\C(=O)Nc2cccc(C#CCCC(N)=O)c21 [J, (Z)-5-[2,3-Dihydro-3-[(3-methoxy-1H-pyrrol-2-yl)methylene]-2-oxo-1H-indol-4-yl]-4-pentynamide]
< 4 µM	–	CNCC#Cc1cccc2c1/C(=C/c1[nH]ccc1OC)C(=O)N2 [JJ, (Z)-1,3-Dihydro-3-[(3-methoxy-1H-pyrrol-2-yl)methylene]-4-[3-(N-methylamino)-1-propynyl]-2H-indol-2-one trifluoroacetate salt]
< 4 µM	–	COc1cc[nH]c1/C=C1\C(=O)Nc2cccc(C#CCCCC(N)=O)c21 [K, (Z)-6-[2,3-Dihydro-3-[(3-methoxy-1H-pyrrol-2-yl)methylene]-2-oxo-1H-indol-4-yl]-5-hexynamide]
< 4 µM	–	COc1cc[nH]c1/C=C1\C(=O)Nc2cccc(C#CCNCc3ccccc3)c21 [KK, (Z)-1,3-Dihydro-3-[(3-methoxy-1H-pyrrol-2-yl)methylene]-4-[3-(N-phenylmethylamino)-1-propynyl]-2H-indol-2-one]
< 4 µM	–	COc1cc[nH]c1/C=C1\C(=O)Nc2cccc(C#CC(C)(C)O)c21 [L, (Z)-1,3-Dihydro-4-(3-hydroxy-3-methyl-1-butynyl)-3-[(3-methoxy-1H-pyrrol-2-yl)methylene]-2H-indol-2-one]
< 4 µM	–	COC(=O)NCC#Cc1cccc2c1/C(=C/c1[nH]ccc1OC)C(=O)N2 [LL, (Z)-[3-[2,3-Dihydro-3-[(3-methoxy-1H-pyrrol-2-yl)methylene]-2-oxo-1H-indol-4-yl]-2-propynyl]carbamic acid methyl ester]
< 4 µM	–	COc1cc[nH]c1/C=C1\C(=O)Nc2cccc(C#CC3(O)CCCCC3)c21 [M, (Z)-1,3-Dihydro-4-[(1-hydroxycyclohexyl)ethynyl]-3-[(3-methoxy-1H-pyrrol-2-yl)methylene]-2H-indol-2-one]
< 4 µM	–	COc1cc[nH]c1/C=C1\C(=O)Nc2cccc(C#CCOC(N)=O)c21 [MM, (Z)-Carbamic acid 3-[2,3-dihydro-3-[(3-methoxy-1H-pyrrol-2-yl)methylene]-2-oxo-1H-indol-4-yl]-2-propynyl ester]
< 4 µM	–	CNC(=O)OCC#Cc1cccc2c1/C(=C/c1[nH]ccc1OC)C(=O)N2 [NN, (Z)-N-Methylcarbamic acid 3-[2,3-dihydro-3-[(3-methoxy-1H-pyrrol-2-yl)methylene]-2-oxo-1H-indol-4-yl]-2-propynyl ester]
< 4 µM	–	CCCCC[C@H](O)C#Cc1cccc2c1/C(=C/c1[nH]ccc1OC)C(=O)N2 [U, (S)-(Z)-1,3-Dihydro-4-(3-hydroxy-1-octynyl)-3-[(3-methoxy-1H-pyrrol-2-yl)methylene]-2H-indol-2-one]
< 4 µM	–	COC(=O)C(CC#Cc1cccc2c1/C(=C/c1[nH]ccc1OC)C(=O)N2)C(=O)OC [V, (Z)-[3-[2,3-Dihydro-3-[(3-methoxy-1H-pyrrol-2-yl)methylene]-2-oxo-1H-indol-4-yl]-2-propynyl]propanedioic acid dimethyl ester]
< 4 µM	–	COc1cc[nH]c1/C=C1\C(=O)Nc2cccc(C#CCC(C(=O)O)C(=O)O)c21 [W, (Z)-[3-[2,3-Dihydro-3-[(3-methoxy-1H-pyrrol-2-yl)methylene]-2-oxo-1H-indol-4-yl]-2-propynyl]propanedioic acid]
< 4 µM	–	COCC#Cc1cccc2c1/C(=C/c1[nH]ccc1OC)C(=O)N2 [X, (Z)-1,3-Dihydro-4-(3-methoxy-1-propynyl)-3-[(3-methoxy-1H-pyrrol-2-yl)methylene]-2H-indol-2-one]
< 4 µM	–	COc1cc[nH]c1/C=C1\C(=O)Nc2cccc(C#CCO)c21 [Y, (Z)-1,3-Dihydro-4-(3-hydroxy-1-propynyl)-3-[(3-methoxy-1H-pyrrol-2-yl)methylene]-2H-indol-2-one]
–	> 90%	COc1cc[nH]c1/C=C1\C(=O)Nc2ccc([N+](=O)[O-])c(C#CCO)c21 [Z, (Z)-1,3-Dihydro-4-(3-hydroxy-1-propynyl)-3-[(3-methoxy-1H-pyrrol-2-yl)methylene]-5-nitro-2H-indol-2-one]
< 4 µM	–	Cc1nc[nH]c1/C=C1\C(=O)Nc2ccc(F)c(C#CCNC(N)=O)c21 [ZZ, (Z)-[3-[5-fluoro-2,3-dihydro-3-[(4-methyl-1H-imidazol-5-yl)methylene]-2-oxo-1H-indol-4-yl]-2-propynyl]urea]
